Measurements from patent publication US8729228B2, “Method of producing a modified (poly) peptide” (University of Geneva, priority 2005, dated 2014).
Residues, ends and D or L forms follow the SMILES beside them. *: point of attachment. OBn = c1ccc(CO*)cc1

Legend:
[1] = test system: α-smooth muscle-actin (α-SMA); test: α-SMA stress fibre assay in α-SMA-EGFP transfected REF-52 cells (confocal microscopy); format: cell-based, Rat; conditions: for penetration into the cell, monitored by detection of the expected biological activity: extent measured by comparison with the biological activity of standards
Method: FIG. 15: (a) Constructs designed to deliver the Ac-EEED peptide into cells through a semi-permanent carboxy esterification strategy. (b) Rat embryonic fibroblasts (REF-52 cells) transfected with the α-SMA-EGFP construct (Clement et al., J Cell Sci. 118, 1395-1404 (2005)) were trypsinized, plated on coverslips for 1 days in DMEM/2% FCS and treated with SMA-Peptide [Ac-E(OBzl)-E(OBzl)-E(OBzl)-D(OBzl)-K(Ac)-CONH2] (5 μg/ml) for 45 min in DMEM without FCS (37 C, incubator). Cells were the rinsed in DMEM, fixed with 1% PFA, and mounted for confocal microscopy (LSM510, Carl Zeiss) observation. α-SMA-EGFP transfected cells were either untreated (control; left), or treated for 45 minutes with SMA-Peptide [Ac-E(OBzl)-E(OBzl)-E(OBzl)-D(OBzl)-K(Ac)-CONH2] (right).
This example relates to delivery of the peptide using a semi-permanent carboxy esterification strategy of a synthetic peptide incorporating a C-terminal lysine residue, whose carboxy terminus is amidated and whose epsilon amino group is either acetylated or used as a handle to attach a tracer (fluorochrome, biotin, etc, FIG. 15(a)). Four constructs have been tested, varying the lipophilicity of the protecting ester moiety.

[2] = biological target: α-smooth muscle-actin (α-SMA) (Homo sapiens, UniProt P62736); conditions: microinjection (Chaponnier et al. 1995) and fusion to a PTD (Hinz et al. 2002); cited from earlier work

Compound | α-SMA positive-stress fibers ([1]; REF-52 cells transfected with α-SMA-EGFP, 5 μg/ml for 45 min in DMEM without FCS, 37 C) | penetration into the cell, monitored by detection of the expected biological activity ([1]; listed as template) | penetration into the cell, monitored by detection of the expected biological activity ([1]; listed as template with the carboxylates esterified with benzyl groups) | blocking polymerisation of α-smooth muscle-actin (α-SMA) [2]
CC(=O)NCCCC[C@H](NC(=O)[C@H](CC(=O)OCc1ccccc1)NC(=O)[C@H](CCC(=O)OCc1ccccc1)NC(=O)[C@H](CCC(=O)OCc1ccccc1)NC(=O)[C@H](CCC(=O)OCc1ccccc1)NC(C)=O)C(N)=O [SMA-Peptide, Ac-E(OBzl)-E(OBzl)-E(OBzl)-D(OBzl)-K(Ac)-CONH2] (Ac-E(OBn)E(OBn)E(OBn)D(OBn)K(Ac)-NH2) | provokes α-SMA positive-stress fiber disappearance | incomplete | showed penetration into the cell | 
Ac-EEED |  |  |  | capable of blocking polymerisation of α-smooth muscle-actin (α-SMA)
